We go through twelve molecules from article PMC3883446 (Bioorganic & medicinal chemistry letters, 2012).

Structures are written as SMILES. Where two headings read alike, the source gives them in different places.

For one series, the target named is T1, hM1 (Homo sapiens, UniProt P11229).
T1 sequence (P11229 1-460): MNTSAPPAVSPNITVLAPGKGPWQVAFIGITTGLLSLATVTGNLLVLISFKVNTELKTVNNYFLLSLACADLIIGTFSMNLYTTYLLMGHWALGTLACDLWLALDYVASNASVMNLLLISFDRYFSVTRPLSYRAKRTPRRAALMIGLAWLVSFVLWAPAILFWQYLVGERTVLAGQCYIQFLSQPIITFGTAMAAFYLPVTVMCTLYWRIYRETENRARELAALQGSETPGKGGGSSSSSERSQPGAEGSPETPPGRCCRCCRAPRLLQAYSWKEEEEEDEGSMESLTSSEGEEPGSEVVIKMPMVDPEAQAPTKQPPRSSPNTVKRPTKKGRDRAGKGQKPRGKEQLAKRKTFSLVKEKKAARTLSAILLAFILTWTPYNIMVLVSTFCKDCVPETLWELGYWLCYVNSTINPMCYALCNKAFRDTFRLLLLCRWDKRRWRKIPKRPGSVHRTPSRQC
The experiment in a line: hM1 antagonist potency, calcium mobilization assay. As to conditions: for % ACh activity remaining: at the highest concentration tested (30 μM). The series is classed as cell-based. Background: Calcium flux is commonly read through the fluorescence of an indicator in the cells.

For another series, the target named is T2, M1 (Homo sapiens, UniProt P11229).
T2 sequence (P11229 1-460): T1 sequence (P11229 1-460)
The series is classed as cell-based. To be noted: antagonism of ACh at M1; mean ± S.E.M. of three experiments in triplicate.

For the next series, the system named is M1 mAChR. Briefly: equilibrium radioligand binding, [3H]NMS competition. To be noted: Figure 4A.
Series [1] can be described thus: in vitro hepatic microsome intrinsic clearance. The series is classed as in vitro ADME, rat.
The subject of the next series is rat (r) M1-5 receptors. The experiment in a line: calcium mobilization assay, rat M1-5 selectivity. The series is classed as cell-based. To be noted: CRCs in the presence of an EC80 concentration of ACh; Figure 5.
For series [2], the system named is pilocarpine-induced seizures. As to conditions: rodents; cited from earlier work.
For series [3], the system named is contextual fear conditioning. To be noted: at doses that reduced seizures; cited from earlier work.

For `O=C(C1CN(S(=O)(=O)c2cccc3nsnc23)C1)N1CCN(c2ccncc2)CC1` [2d], the “fold less active / less potent than ML012” value at hM1 (hM1, relative to ML012) is recorded as 3 fold.

As to `Cc1ccnc(S(=O)(=O)N2CC(C(=O)N3CCN(c4ccncc4)CC3)C2)c1` [7e], the “% ACh activity remaining” value at hM1 (hM1) is recorded as 38%.

Regarding `O=C(C1CN(S(=O)(=O)c2ccc(Cl)cn2)C1)N1CCN(c2ccncc2)CC1` [7f], the “% ACh activity remaining” value at hM1 (hM1) was 41%.

`O=C(C1CN(S(=O)(=O)c2ccc3c(c2)OCO3)C1)N1CCN(c2ccncc2)CC1` [7o]: in the series with M1, the “slope of Schild regression” value turned out to be 0.96 ± 0.02. In addition, the “displacement of the orthosteric ligand [3H]NMS” value (from here on “displacement”) with M1 mAChR is “complete displacement”.

For the molecule `COc1ccc(S(=O)(=O)N2CC(C(=O)N3CCN(c4ccncc4)CC3)C2)cn1` [7t], at hM1 (hM1), the “% ACh activity remaining” value amounted to 20%.

As for `O=C(C1CN(S(=O)(=O)c2ccc(C(F)(F)F)nc2)C1)N1CCN(c2ccncc2)CC1` [7u], the “% ACh activity remaining” value at hM1 (hM1) is 40%.

For `O=C(C1CN(S(=O)(=O)c2ccc3c(c2)CCO3)C1)N1CCN(c2ccncc2)CC1` [7v], on hM1 (hM1, relative to ML012), the “fold increase in potency” value is given as 8 fold.

As for `O=C(C1CN(S(=O)(=O)c2cccc3cnccc23)C1)N1CC2CN(c3ccncc3)CC2C1` (stereo not drawn) [12a], in series [1] (predicted from microsome intrinsic clearance), the “predicted hepatic clearance (CLHEP)” value is on record as 42.3 mL/min/kg. The molecule also returned an intrinsic clearance (CLint scaled) in series [1] (rat, hepatic microsomes) of 107 mL/min/kg. Also, the “slope of Schild regression” value with M1 is listed as 0.94 ± 0.01. In the series on M1 mAChR, the “displacement” value was “complete displacement”. In the series on rat (r) M1-5 receptors, the “selectivity at rat M1 compared to M2-5” value is “selectively antagonize M1”.

Turning to `O=C(C1CN(S(=O)(=O)c2cccc3nonc23)C1)N1CCN(c2ccccn2)CC1` [(1-(Benzo[c][1,2,5]oxadiazol-4-ylsulfonyl)azetidin-3-yl)(4-(pyridin-2-yl)piperazin-1-yl)methanone], on hM1, the IC50 was 5000 nM.

On to `Brc1ccc(N2CCNCC2)nc1` [(5-bromopyridin-2-yl)piperazine], for which the IC50 on hM1 (read-out: hM1 IC50) is 280 nM.

Consider `O=C(CCNS(=O)(=O)c1cccc2nsnc12)N1CCN(c2ccncc2)CC1` [ML012], for which the “effect on pilocarpine-induced seizures” value in series [2] is recorded as “reduced pilocarpine-induced seizures”. The “impact on contextual fear conditioning” value in series [3] was “no negative impact on contextual fear conditioning”.

Take `CN1[C@@H]2CC[C@H]1C[C@@H](OC(=O)C(CO)c1ccccc1)C2` (stereo partly drawn) [atropine, reference compound]: in the series with M1 mAChR, the “displacement” value was “compete with [^3H]NMS binding at M1”.

For orientation: CLint scaled means the capacity of the preparation to metabolise the compound, expressed as a volume cleared per time. Low readings indicate greater metabolic stability, high ones faster metabolism. The IC50 is the concentration needed to halve the response being measured.
